Reference: ChEMBL document CHEMBL4699496, “Exploring efficacy of natural-derived acetylphenol scaffold inhibitors for α-glucosidase: Synthesis, in vitro and in vivo biochemical studies” (Bioorg Med Chem Lett, 2020)
pIC50, pKi: −log10 of the molar value. Active and inactive are the calls of the source. The calls are words filed in the database; no cut-off is given here.

Tests used:
[1] = organism: Mus musculus; experiment: Hypoglycemic activity in Kunming mouse assessed as reduction in maltose-induced blood glucose AUC (0 to 120 mins) by maltose loading test; type: functional, organism-based; settings: time min 0-120
[2] = organism: Rattus norvegicus; experiment: Inhibition of alpha-glucosidase in rat everted intestinal sleeves assessed as reduction in blood glucose AUC (0-90) outside of the intestinal sleeves at 0.5 mM; type: tissue-based; settings: Intestine, time min 0-90
[3] = Inhibition of alpha-glucosidase (unknown origin); set-up: species or system Homo sapiens; settings: read-out: IC50
[4] = organism: Rattus norvegicus; experiment: Inhibition of alpha-glucosidase in rat everted intestinal sleeves assessed as reduction in glucose concentration within intestinal sleeves at 0.5 mM measured for 5 to 90 mins; type: tissue-based; settings: Intestine, time min 5-90
[5] = organism: Mus musculus; experiment: Hypoglycemic activity in Kunming mouse assessed as reduction in maltose-induced postprandial blood glucose level measured after 15 to 120 mins by maltose loading test; type: functional, organism-based; settings: time min 15-120
[6] = organism: Rattus norvegicus; experiment: Inhibition of alpha-glucosidase in rat everted intestinal sleeves assessed as reduction in glucose concentration outside of the intestinal sleeves at 0.5 mM measured after 5 to 90 mins; type: tissue-based; settings: Intestine, time min 5-90
[7] = organism: Rattus norvegicus; experiment: Inhibition of alpha-glucosidase in rat everted intestinal sleeves assessed as reduction in blood glucose AUC (0-90) within intestinal sleeves at 0.5 mM; type: tissue-based; settings: Intestine, time min 0-90
[8] = organism: Rattus norvegicus; experiment: Inhibition of alpha-glucosidase in rat everted intestinal sleeves assessed as reduction in blood glucose AUC (0-90) outside of the intestinal sleeves at 0.173 mM; type: tissue-based; settings: Intestine, time min 0-90
[9] = organism: Homo sapiens; experiment: Non-competitive inhibition of alpha-glucosidase (unknown origin) assessed as decrease in Vmax with constant Km at 0.0 to 0.92 uM using p-NPG as substrate by Lineweaver-Burk plot analysis; settings: dose microM 0.0-0.92
[10] = organism: Homo sapiens; experiment: Binding affinity to alpha-glucosidase (unknown origin) assessed as quenching constant at 298 K
[11] = organism: Homo sapiens; experiment: Binding affinity to alpha-glucosidase (unknown origin) assessed as Stern-Volmer quenching constant at 310 K
[12] = Binding affinity to alpha-glcosidase (unknown origin) using p-NPG as substrate; set-up: species or system Homo sapiens
[13] = organism: Homo sapiens; experiment: Binding affinity to alpha-glucosidase (unknown origin) assessed as decrease in fluorescence intensity at 0.16-1.66 uM by fluorescence based Synchronous fluorescence spectroscopy; settings: dose microM 0.16-1.66
[14] = organism: Rattus norvegicus; experiment: Inhibition of alpha-glucosidase in rat everted intestinal sleeves assessed as reduction in glucose concentration within intestinal sleeves at 0.173 mM measured for 5 to 90 mins; type: tissue-based; settings: Intestine, time min 5-90
[15] = organism: Homo sapiens; experiment: Binding affinity to alpha-glucosidase (unknown origin) assessed as Stern-Volmer quenching constant at 304 K
[16] = organism: Homo sapiens; experiment: Binding affinity to alpha-glucosidase (unknown origin) assessed as destabilization of enzyme conformation by measuring induction of protein aggregation at 2.5 uM by atomic force microscopy
[17] = organism: Homo sapiens; experiment: Binding affinity to alpha-glucosidase (unknown origin) assessed as hydrogen bonding interactions by measuring change in entropy at 304 K by Van't Hoff equation analysis
[18] = organism: Homo sapiens; experiment: Binding affinity to alpha-glucosidase (unknown origin) assessed as Stern-Volmer quenching constant at 298 K
[19] = organism: Homo sapiens; experiment: Binding affinity to alpha-glucosidase (unknown origin) assessed as binding constant at 304 K
[20] = organism: Homo sapiens; experiment: Binding affinity to alpha-glucosidase (unknown origin) assessed as enzyme complexation with compound at 2.5 uM by measuring mean width of enzyme by atomic force microscopy (reference value: 28.35 nm)
[21] = organism: Rattus norvegicus; experiment: Inhibition of alpha-glucosidase in rat everted intestinal sleeves assessed as reduction in blood glucose AUC (0-90) within intestinal sleeves at 0.173 mM; type: tissue-based; settings: Intestine, time min 0-90
[22] = organism: Homo sapiens; experiment: Binding affinity to alpha-glucosidase (unknown origin) assessed as fluorescence quenching at 0.16 to 1.83 uM by fluorescence spectral analysis; settings: dose microM 0.16-1.83
[23] = organism: Homo sapiens; experiment: Binding affinity to alpha-glucosidase (unknown origin) assessed as quenching constant at 304 K
[24] = organism: Homo sapiens; experiment: Binding affinity to alpha-glucosidase (unknown origin) assessed as quenching constant at 310 K
[25] = organism: Homo sapiens; experiment: Binding affinity to alpha-glucosidase (unknown origin) assessed as change in gibbs free energy at 310 K by Van't Hoff equation analysis
[26] = organism: Homo sapiens; experiment: Binding affinity to alpha-glucosidase (unknown origin) assessed as change in the microenvironment of tryptophan residue by measuring blue shift at 0.16 to 1.66 uM by fluorescence based Synchronous fluorescence spectroscopy; settings: dose microM 0.16-1.66
[27] = organism: Homo sapiens; experiment: Binding affinity to alpha-glucosidase (unknown origin) assessed as decrease in fluorescence intensity of Tyr residue without shift in maximum emission wavelength at 0.16 to 1.66 uM by fluorescence based Synchronous fluorescence spectroscopy; settings: dose microM 0.16-1.66
[28] = organism: Rattus norvegicus; experiment: Inhibition of alpha-glucosidase in rat everted intestinal sleeves assessed as reduction in glucose concentration outside of the intestinal sleeves at 0.173 mM measured after 5 to 90 mins; type: tissue-based; settings: Intestine, time min 5-90
[29] = organism: Homo sapiens; experiment: Binding affinity to alpha-glucosidase (unknown origin) assessed as change in gibbs free energy at 298 K by Van't Hoff equation analysis
[30] = organism: Homo sapiens; experiment: Binding affinity to alpha-glucosidase (unknown origin) assessed as binding constant at 310 K
[31] = organism: Homo sapiens; experiment: Binding affinity to alpha-glucosidase (unknown origin) assessed as binding constant at 298 K
[32] = organism: Homo sapiens; experiment: Binding affinity to alpha-glucosidase (unknown origin) assessed as enzyme complexation with compound by measuring mean height of enzyme at 2.5 uM by atomic force microscopy (reference value: 0.87 nm)
[33] = organism: Homo sapiens; experiment: Binding affinity to alpha-glucosidase (unknown origin) assessed as change in gibbs free energy at 304 K by Van't Hoff equation analysis
[34] = organism: Homo sapiens; experiment: Binding affinity to alpha-glucosidase (unknown origin) assessed as hydrophobic interactions by measuring change in enthalpy at 304 K by Van't Hoff equation analysis
[35] = organism: Homo sapiens; experiment: Binding affinity to alpha-glucosidase (unknown origin) assessed as change in the microenvironment of tyrosine residue by measuring red shift at 0.16 to 1.66 uM by fluorescence based Synchronous fluorescence spectroscopy; settings: dose microM 0.16-1.66
[36] = organism: Homo sapiens; experiment: Binding affinity to alpha-glucosidase (unknown origin) assessed as decrease in fluorescence intensity of Trp residue without shift in maximum emission wavelength at 0.33-3.22 uM by fluorescence based Synchronous fluorescence spectroscopy; settings: dose microM 0.33-3.22
[37] = organism: Homo sapiens; experiment: Non-competitive inhibition of alpha-glucosidase (unknown origin) assessed as decrease in Vmax with constant Km at 0.0 to 2.5 uM using p-NPG as substrate by Lineweaver-Burk plot analysis; settings: dose microM 0.0-2.5
[38] = organism: Homo sapiens; experiment: Binding affinity to alpha-glucosidase (unknown origin) assessed as change in the microenvironment of tyrosine and tryptophan residues at 0.33 to 3.32 uM by fluorescence based Synchronous fluorescence spectroscopy; settings: dose microM 0.33-3.32
[39] = organism: Homo sapiens; experiment: Binding affinity to alpha-glucosidase (unknown origin) assessed as decrease in fluorescence intensity of Tyr residue without shift in maximum emission wavelength at 0.33 to 3.22 uM by fluorescence based Synchronous fluorescence spectroscopy; settings: dose microM 0.33-3.22
[40] = organism: Homo sapiens; experiment: Binding affinity to alpha-glucosidase (unknown origin) assessed as fluorescence quenching at 0.33 to 3.66 uM by fluorescence spectral analysis; settings: dose microM 0.33-3.66

SMILES	Activity [1]	pIC50 [3]	Activity [5]	inhibition [8]	Kq [10]	KSV [11]	pKi [12]	inhibition [14]	KSV [15]	Activity [16]	deltaS [17] [J/mol/K]	KSV [18]	Ka [19]	Activity [20] [nm]	inhibition [21]	Kq [23]	Kq [24]	deltaG [25] [kcal/mol]	inhibition [28]	deltaG [29] [kcal/mol]	further results
C[C@H]1O[C@H](O[C@H]2[C@H](O)[C@@H](O)[C@@H](O[C@H]3[C@H](O)[C@@H](O)C(O)O[C@@H]3CO)O[C@@H]2CO)[C@H](O)[C@@H](O)[C@@H]1N[C@H]1C=C(CO)[C@@H](O)[C@H](O)[C@H]1O (stereo partly drawn) [ACARBOSE]	Active	4.24	Active	–	–	–	–	–	–	–	–	–	–	–	–	–	–	–	–	–	inhibition [2]: Active; inhibition [4]: Active; inhibition [6]: Active; inhibition [7]: Active
Cc1cc(C(=O)C(C)C)c(O)c(Br)c1OC(=O)CI	Active	6.24	Dose-dependent effect	Active	2.98 10^12L/mol/s	2.24 10^4L/mol	6.19	Active	2.59 10^4L/mol	Active	57	2.98 10^4L/mol	1.45 10^4L/mol	29.6	Active	2.59 10^12L/mol/s	2.24 10^12L/mol/s	-8.89	Active	-8.73	inhibition [9]: Active; Activity [13]: Active; Activity [22]: Active; Activity [26]: Active; Activity [27]: inactive; Ka [30]: 1.36 10^4L/mol; Ka [31]: 1.56 10^4L/mol; Activity [32]: 3.97 nm; deltaG [33]: -8.81 kcal/mol; deltaH [34]: -4.67 kcal/mol; Activity [35]: Active
CCCCCCCC(=O)c1cc(C)c(OC(=O)CI)cc1O	Active	5.77	Dose-dependent effect	Active	2.27 10^12L/mol/s	1.64 10^4L/mol	5.79	Active	1.95 10^4L/mol	Active	45	2.27 10^4L/mol	1.34 10^4L/mol	47.5	Active	1.95 10^12L/mol/s	1.64 10^12L/mol/s	-4.36	Active	-4.23	Activity [36]: Active; inhibition [37]: Active; Activity [38]: inactive; Activity [39]: inactive; Ka [30]: 1.3 10^4L/mol; Activity [40]: Active; Ka [31]: 1.39 10^4L/mol; Activity [32]: 0.75 nm; deltaG [33]: -4.29 kcal/mol; deltaH [34]: -1.02 kcal/mol
